How the values were obtained:
NOMO1 [1] = test: AUC of viability dose-response curve (% viability x log10 dose units); higher = less sensitive; conditions: 48 h
Outline: (§1)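 In 1536-well plates, leukemia cells adapted to each medium (500 or 1000 cells/well) were exposed for 48 h at 37°C to library compounds in DMSO across 11 threefold doses, 47 μM down to 0.79 nM. Viability was read by CellTiter-Glo One luminescence and normalised per plate to DMSO and cell-free wells. A four-parameter log-logistic fit over log10 doses was integrated by trapezoidal rule. This yielded the area under the curve, with over-full-viability curves scaled and quality-control failures dropped.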

P12-Ichikawa [2] = test: as above; conditions: 48 h
Outline: as §1

SEM cells [3] = test: as above; conditions: 48 h
Outline: as §1

SEM cells [4] = test: cell viability relative to DMSO control; higher = less cytotoxic; conditions: 48 h
Outline: (§2)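 NOMO1 or SEM (500 cells/well) or P12-Ichikawa (1000 cells/well) leukemia cells were adapted for at least four passages in each medium. They were seeded in 1536-well plates (5 μl) and pin-dosed with library compounds in DMSO over an 11-point threefold series, 47 μM to 0.79 nM. CellTiter-Glo One luminescence was read after 48 h at 37°C. Viability is the per-plate percentage relative to DMSO wells, with cell-free wells as background.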

NOMO1 [5] = test: as above; conditions: RPMI 5 mM glucose + 10% FBS, 48 h
Outline: as §2

P12-Ichikawa [6] = test: as above; conditions: RPMI 5 mM glucose + 10% dialyzed FBS, 48 h
Outline: as §2

Fc1ccc(CNc2ncnc3ccc(F)cc23)cc1
AUC of viability dose-response curve
Conditions | HPLM + 10% dialyzed FBS | RPMI 5 mM glucose + 10% FBS | RPMI 5 mM glucose + 10% dialyzed FBS
NOMO1 [1] | 445 | 452 | 419
P12-Ichikawa [2] | 453 | 429 | 429

COc1cc(C(C)C)c(Oc2cnc(NC(CO)CO)nc2N)cc1I
AUC of viability dose-response curve
Conditions | NOMO1 [1] | P12-Ichikawa [2] | SEM cells [3]
HPLM + 10% dialyzed FBS | 468 | 464 | 458
RPMI 5 mM glucose + 10% FBS | 436 | 466 | 442
RPMI 5 mM glucose + 10% dialyzed FBS | 457 | 452 | 453

O=C([O-])Cc1ccccc1Nc1c(Cl)cccc1Cl
cell viability [%], SEM cells [4]
Conditions | HPLM + 10% dialyzed FBS | RPMI 5 mM glucose + 10% FBS
0.000781 µM | 109 | 126
0.00234 µM | 121 | 113
0.00702 µM | 110 | 113
0.0211 µM | 125 | 109
0.0632 µM | 126 | 123
0.19 µM | 129 | 112
0.569 µM | 117 | 111
1.71 µM | 122 | 111
5.12 µM | 75.7 | 69.1
15.4 µM | 112 | 108
46.1 µM | 65.9 | 49

AUC of viability dose-response curve
Conditions | NOMO1 [1] | P12-Ichikawa [2] | SEM cells [3]
HPLM + 10% dialyzed FBS | 454 | 447 | 442
RPMI 5 mM glucose + 10% FBS | 455 | 445 | 429
RPMI 5 mM glucose + 10% dialyzed FBS | 458 | 447 | 430

CNC(=O)c1ccccc1Nc1nc(Nc2ccc(N3CCOCC3)cc2OC)ncc1Cl
AUC of viability dose-response curve
Conditions | NOMO1 [1] | P12-Ichikawa [2] | SEM cells [3]
HPLM + 10% dialyzed FBS | 387 | 408 | 349
RPMI 5 mM glucose + 10% FBS | 397 | 404 | 332
RPMI 5 mM glucose + 10% dialyzed FBS | 377 | 416 | 337

COc1ccc2c(c[n+](C)c3c4cc5c(cc4ccc23)OCO5)c1OC
AUC of viability dose-response curve
Conditions | NOMO1 [1] | P12-Ichikawa [2] | SEM cells [3]
HPLM + 10% dialyzed FBS | 438 | 423 | 407
RPMI 5 mM glucose + 10% FBS | 447 | 406 | 397
RPMI 5 mM glucose + 10% dialyzed FBS | 449 | 404 | 402

CN(C)CCN(C)CCc1ccc(Cl)c(Cl)c1
cell viability [%], SEM cells [4]
Conditions | HPLM + 10% dialyzed FBS | RPMI 5 mM glucose + 10% FBS
0.000781 µM | 118 | 123
0.00234 µM | 114 | 101
0.00702 µM | 132 | 121
0.0211 µM | 131 | 125
0.0632 µM | 128 | 124
0.19 µM | 131 | 133
0.569 µM | 127 | 145
1.71 µM | 119 | 132
5.12 µM | 122 | 127
15.4 µM | 114 | 131
46.1 µM | 114 | 126

AUC of viability dose-response curve
Conditions | NOMO1 [1] | P12-Ichikawa [2] | SEM cells [3]
HPLM + 10% dialyzed FBS | 473 | 467 | 466
RPMI 5 mM glucose + 10% FBS | 473 | 465 | 458
RPMI 5 mM glucose + 10% dialyzed FBS | 473 | 466 | 451

CCN1CCCC1CNC(=O)c1cc(S(=O)(=O)CC)c(N)cc1OC (configuration not stated)
AUC of viability dose-response curve
Conditions | NOMO1 [1] | P12-Ichikawa [2] | SEM cells [3]
HPLM + 10% dialyzed FBS | 458 | 463 | 474
RPMI 5 mM glucose + 10% FBS | 459 | 461 | 474
RPMI 5 mM glucose + 10% dialyzed FBS | 469 | 469 | 453

OCc1ccccc1O[C@@H]1O[C@H](CO)[C@@H](O)[C@H](O)[C@H]1O
Conditions | AUC of viability dose-response curve | cell viability [%]
NOMO1 [1], HPLM + 10% dialyzed FBS | 447 | –
NOMO1 [1], RPMI 5 mM glucose + 10% FBS | 463 | –
NOMO1 [1], RPMI 5 mM glucose + 10% dialyzed FBS | 458 | –
NOMO1 [5], 0.000781 µM | – | 120
NOMO1 [5], 0.00234 µM | – | 116
NOMO1 [5], 0.00702 µM | – | 139
NOMO1 [5], 0.0211 µM | – | 128
NOMO1 [5], 0.0632 µM | – | 126
NOMO1 [5], 0.19 µM | – | 139
NOMO1 [5], 0.569 µM | – | 138
NOMO1 [5], 1.71 µM | – | 127
NOMO1 [5], 5.12 µM | – | 129
NOMO1 [5], 15.4 µM | – | 106
NOMO1 [5], 46.1 µM | – | 98.7
P12-Ichikawa [2], HPLM + 10% dialyzed FBS | 464 | –
P12-Ichikawa [2], RPMI 5 mM glucose + 10% FBS | 448 | –
P12-Ichikawa [2], RPMI 5 mM glucose + 10% dialyzed FBS | 459 | –
SEM cells [3], HPLM + 10% dialyzed FBS | 430 | –
SEM cells [3], RPMI 5 mM glucose + 10% FBS | 372 | –
SEM cells [3], RPMI 5 mM glucose + 10% dialyzed FBS | 426 | –

SEM cells [4], RPMI 5 mM glucose + 10% dialyzed FBS
Conditions | cell viability [%]
0.000781 µM | 101
0.00234 µM | 121
0.00702 µM | 118
0.0211 µM | 121
0.0632 µM | 136
0.19 µM | 148
0.569 µM | 121
1.71 µM | 117
5.12 µM | 97.5
15.4 µM | 61.8
46.1 µM | 48.8

COC(=O)C1=C(C)NC(C)=C(C(=O)OCCN2CCN(C(c3ccccc3)c3ccccc3)CC2)C1c1cccc([N+](=O)[O-])c1.Cl.Cl (configuration not stated)
AUC of viability dose-response curve
Conditions | NOMO1 [1] | P12-Ichikawa [2] | SEM cells [3]
HPLM + 10% dialyzed FBS | 472 | 447 | 463
RPMI 5 mM glucose + 10% FBS | 464 | 464 | 421
RPMI 5 mM glucose + 10% dialyzed FBS | 445 | 442 | 453

C\C1=N\N=C(\C2=CC=C(N)C=C2)C3=CC4=C(OCO4)C=C3C1
SEM cells [4], HPLM + 10% dialyzed FBS
Conditions | cell viability [%]
0.000781 µM | 129
0.00234 µM | 115
0.00702 µM | 122
0.0211 µM | 136
0.0632 µM | 126
0.19 µM | 123
0.569 µM | 131
1.71 µM | 131
5.12 µM | 150
15.4 µM | 138
46.1 µM | 107

AUC of viability dose-response curve
Conditions | NOMO1 [1] | P12-Ichikawa [2] | SEM cells [3]
HPLM + 10% dialyzed FBS | 471 | 469 | 467
RPMI 5 mM glucose + 10% FBS | 471 | 465 | 470
RPMI 5 mM glucose + 10% dialyzed FBS | 464 | 465 | 464

COc1ccc(CCN2CCN(CCCc3ccccc3)CC2)cc1OC
cell viability [%], SEM cells [4]
Conditions | HPLM + 10% dialyzed FBS | RPMI 5 mM glucose + 10% FBS | RPMI 5 mM glucose + 10% dialyzed FBS
0.000781 µM | 100 | 108 | 115
0.00234 µM | 115 | 125 | 113
0.00702 µM | 117 | 112 | 132
0.0211 µM | 133 | 124 | 134
0.0632 µM | 133 | 133 | 141
0.19 µM | 138 | 132 | 162
0.569 µM | 134 | 127 | 150
1.71 µM | 126 | 129 | 148
5.12 µM | 125 | 133 | 141
15.4 µM | 127 | 125 | 139
46.1 µM | 127 | 109 | 122

AUC of viability dose-response curve
Conditions | NOMO1 [1] | P12-Ichikawa [2] | SEM cells [3]
HPLM + 10% dialyzed FBS | 459 | 466 | 461
RPMI 5 mM glucose + 10% FBS | 444 | 472 | 465
RPMI 5 mM glucose + 10% dialyzed FBS | 439 | 473 | 457

Cc1c(C(=O)Nc2ccc(N3C[C@@H](C)O[C@@H](C)C3)nc2)cccc1-c1ccc(OC(F)(F)F)cc1
Conditions | AUC of viability dose-response curve | cell viability [%]
NOMO1 [1], HPLM + 10% dialyzed FBS | 366 | –
NOMO1 [1], RPMI 5 mM glucose + 10% FBS | 382 | –
NOMO1 [1], RPMI 5 mM glucose + 10% dialyzed FBS | 408 | –
P12-Ichikawa [2], HPLM + 10% dialyzed FBS | 349 | –
P12-Ichikawa [2], RPMI 5 mM glucose + 10% FBS | 372 | –
P12-Ichikawa [2], RPMI 5 mM glucose + 10% dialyzed FBS | 372 | –
P12-Ichikawa [6], 0.000781 µM | – | 128
P12-Ichikawa [6], 0.00234 µM | – | 119
P12-Ichikawa [6], 0.00702 µM | – | 119
P12-Ichikawa [6], 0.0211 µM | – | 131
P12-Ichikawa [6], 0.0632 µM | – | 131
P12-Ichikawa [6], 0.19 µM | – | 126
P12-Ichikawa [6], 0.569 µM | – | 124
P12-Ichikawa [6], 1.71 µM | – | 104
P12-Ichikawa [6], 5.12 µM | – | 48.6
P12-Ichikawa [6], 15.4 µM | – | 7.92
P12-Ichikawa [6], 46.1 µM | – | 6.12
SEM cells [3], HPLM + 10% dialyzed FBS | 361 | –
SEM cells [3], RPMI 5 mM glucose + 10% FBS | 335 | –
SEM cells [3], RPMI 5 mM glucose + 10% dialyzed FBS | 356 | –

SEM cells [4], HPLM + 10% dialyzed FBS
Conditions | cell viability [%]
0.000781 µM | 113
0.00234 µM | 125
0.00702 µM | 116
0.0211 µM | 133
0.0632 µM | 131
0.19 µM | 124
0.569 µM | 132
1.71 µM | 108
5.12 µM | 16.3
15.4 µM | 6.58
46.1 µM | 4.61

— the supplement of paper PMC11451515
